# Test results from US11369653B2, “Traditional Chinese medicine composition for treating cardiovascular and cerebrovascular disease, preparation method therefor and use thereof” (priority 2018, dated 2022).
# Tests used:
# [1] = system: arteriovenous bypass thrombosis in rats; test: Arteriovenous bypass thrombosis in rats; format: in vivo; conditions: SD rats, 6.75 mg/kg by gavage for 15 days
# Procedure: After 5 days of adaptive feeding, the animals were randomly divided into blank control group, positive control group (Plavix group, 6.75 mg/kg), and four test substance groups (100, 200, 400 and 800 mg/kg), with 20 rats in each group. The animals were administered by gavage for 15 consecutive days, once a day.
# After the last administration, 3% Pentobarbital Sodium was injected intraperitoneally for anesthesia (40 mg/kg). The right common carotid artery and left external jugular vein were separated. A 6 cm long medical surgical suture (No. 0) was placed in the middle of a polyethylene tube, which was filled with normal saline and inserted into the right common carotid artery and the left external jugular vein respectively to form an arteriovenous vascular loop. After 15 minutes, the blood flow was cut off, and the suture was taken out and weighed.
# In this experiment, the classical rat arteriovenous bypass was used to form the bypass arteriovenous blood flow. When the platelets in the arterial blood flow contact the rough surface of the suture, they adhere to the suture, and the platelet aggregation forms platelet thrombosis around the surface of the suture. When platelet adhesion and aggregation function is inhibited, the weight of thrombosis become smaller. Therefore, the adhesion and aggregation function of platelets can be measured by thrombus weight.
# [2] = system: thrombin induced platelet aggregation in rats; test: Thrombin induced rat platelet aggregation after 15 days gavage; format: in vivo; conditions: SD rats, 6.75 mg/kg by gavage for 15 days
# Description: Platelet aggregation rate is a detection index of platelet function. The higher the platelet aggregation rate, the greater the possibility of thrombosis. In arteriosclerosis, coronary heart disease, cerebral infarction, hypertension, diabetes and other thrombotic diseases, platelet aggregation rate is often increased. […] Therefore, the determination of platelet aggregation rate can be used to observe the curative effect and screen drugs. In this study, thrombin induced rat platelet aggregation model was used to evaluate the inhibitory effect of the traditional Chinese medicine composition on platelet aggregation. […]
# After the last administration, 3% Pentobarbital Sodium was injected intraperitoneally for anesthesia (40 mg/kg). […] After 10 minutes of centrifugation at 800 rpm, the upper platelet rich plasma (PRP) was aspirated and the number of platelets was counted. […]
# A small magnetic rod and 300 μl PRP were added into a square cup, which was preheated for 5 minutes in a constant temperature hole, and 300 μl PPP was added into another square cup. […] The maximum platelet aggregation rate was measured, wherein 3-4 parallel tests were performed for each blood sample and the average value was taken.
structure (smiles),measurement,setting,value
"COC(=O)[C@H](c1ccccc1Cl)N1CCc2sccc2C1 [Plavix, Clopidogrel Hydrogen Sulphate]",Net weight of suture,[1],20.2 ± 4.8 mg
same,Maximum platelet aggregation rate,[2],35.8±29.7%
